Data published in patent US12116388B2, “Amylin receptor agonists” (Novo Nordisk A/S, priority 2022, dated 2024).
Starred links: 1 amine or outer side, 2 acyl side, 3 side chain; linkers in the order of their positions; H or OH if unused. Residues, ends and D or L forms follow the SMILES beside them. Groups on a side chain read outwards from the residue. *: point of attachment. C18 diacid = O=C(O)CCCCCCCCCCCCCCCCC(=O)*; γGlu = O=C(O)[C@H](CCC(=O)[*:2])N[*:1]

Assays:
[1] = target: T1, human calcitonin receptor (hCTR) (Homo sapiens, UniProt P30988); test: Human calcitonin receptor (hCTR) in vitro potency assay, CRE-luciferase reporter in BHK cells; type: cell-based; conditions: BHK hCTR/CRE-Luc cells, 3 hours incubation, assay buffer with 1% ovalbumin; read-out: hCalcR potency, EC50
T1 construct: host or cells: BHK (Baby Hamster Kidney), Hollex-1 cell line
T1 sequence (P30988 25-474): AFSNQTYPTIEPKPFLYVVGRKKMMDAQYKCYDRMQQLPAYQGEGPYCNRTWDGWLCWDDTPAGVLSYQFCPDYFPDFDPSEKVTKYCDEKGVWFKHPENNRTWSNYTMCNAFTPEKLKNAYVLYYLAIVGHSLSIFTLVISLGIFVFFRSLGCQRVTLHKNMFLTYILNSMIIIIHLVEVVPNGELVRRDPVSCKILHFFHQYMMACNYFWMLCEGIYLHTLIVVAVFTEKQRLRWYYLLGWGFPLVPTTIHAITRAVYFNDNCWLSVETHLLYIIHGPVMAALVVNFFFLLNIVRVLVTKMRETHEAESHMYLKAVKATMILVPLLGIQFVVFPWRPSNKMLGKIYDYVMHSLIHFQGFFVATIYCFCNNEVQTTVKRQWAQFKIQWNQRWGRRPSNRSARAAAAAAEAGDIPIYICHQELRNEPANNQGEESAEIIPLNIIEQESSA
Procedure, shortened: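 Luciferase signal from a CRE reporter served as the cAMP read-out after 3 h, 37 °C exposure to compound. Cells were stably transfected BHK expressing hCTR, and the buffer was phenol-red-free DMEM with 10 mM HEPES and 1% ovalbumin. Compounds were tested as 7-point, 7-fold dilutions, often from about 10 nM.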

[2] = target: T2, human amylin receptor (hAMYR3) (Homo sapiens, UniProt O60896+P30988); test: Human amylin receptor (hAMYR3) in vitro potency assay, CRE-luciferase reporter in BHK cells; type: cell-based; conditions: BHK hAMYR3/CRE-Luc cells, 3 hours incubation, assay buffer with 1% ovalbumin
T2 construct: host or cells: BHK (Baby Hamster Kidney), Hollex-1 cell line further transfected with RAMP3
T2 sequence (O60896 24-148, one chain of several): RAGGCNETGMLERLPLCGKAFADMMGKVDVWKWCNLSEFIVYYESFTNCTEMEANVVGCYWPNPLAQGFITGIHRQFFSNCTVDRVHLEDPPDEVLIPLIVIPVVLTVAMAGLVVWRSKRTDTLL
Procedure, shortened: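 Luminescence from a CRE-driven luciferase reporter reflects cAMP-mediated receptor activation. Peptides were serially diluted (7 concentrations, 7-fold steps, typically starting near 10 nM) in buffer with 1% ovalbumin and applied for 3 h at 37 °C to BHK cells co-expressing calcitonin receptor (a) and RAMP3.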

Compound | EC50 [1] [pM] | EC50 [2] [pM]
CC[C@H](C)[C@H](NC(=O)[C@@H]1CCCN1C(=O)CNC(=O)[C@H](Cc1ccccc1)NC(=O)[C@H](Cc1c[nH]cn1)NC(=O)[C@H](Cc1c[nH]cn1)NC(=O)[C@H](CC(C)C)NC(=O)[C@H](Cc1ccccc1)NC(=O)[C@H](CCC(=O)O)NC(=O)[C@H](C)NC(=O)[C@H](CC(C)C)NC(=O)[C@H](CCCNC(=N)N)NC(=O)[C@H](C)NC(=O)[C@@H](NC(=O)[C@H](CCC(N)=O)NC(=O)[C@H](C)NC(=O)[C@@H](NC(=O)[C@H](CO)NC(=O)[C@H](CC(C)C)NC(=O)[C@H](Cc1c[nH]cn1)NC(=O)[C@H](CO)NC(=O)[C@H](C)NC(=O)CC[C@H](NC(=O)CCCCCCCCCCCCCCCCC(=O)O)C(=O)O)[C@@H](C)O)[C@@H](C)O)C(=O)N[C@@H](CC(C)C)C(=O)N1CCC[C@H]1C(=O)N1CCC[C@H]1C(=O)N[C@H](C(=O)N[C@@H](CC(=O)O)C(=O)N[C@H](C(=O)NCC(=O)N[C@@H](CO)C(=O)N[C@@H](CCC(=O)O)C(=O)N[C@H](C(=O)N1CCC[C@H]1C(N)=O)[C@@H](C)O)C(C)C)[C@@H](C)O [Compound 43, N^1-[(4S)-4-carboxy-4-(17-carboxyheptadecanoylamino)butanoyl]-[Ala1,Ser2,His3,Leu4,Ser5,Ala7,Gln8,Ala10,Glu14,His17,Pro25,Pro28,Pro29,Asp31,Glu35,Pro37],des-(19-22)-human amylin] ({C18 diacid-γGlu}-ASHLSTAQTARLAEFLHHFGPILPPTDVGSETP-NH2) | 1.76 | 1.06
CC[C@H](C)[C@H](NC(=O)[C@H](CCCCNC(=O)CC[C@H](NC(=O)CCCCCCCCCCCCCCCCC(=O)O)C(=O)O)NC(=O)CNC(=O)[C@H](Cc1ccccc1)NC(=O)[C@@H]1CCCN1C(=O)[C@H](CC(=O)O)NC(=O)[C@H](CO)NC(=O)[C@H](CO)NC(=O)[C@H](Cc1c[nH]cn1)NC(=O)[C@H](Cc1c[nH]cn1)NC(=O)[C@H](CC(C)C)NC(=O)[C@H](Cc1ccccc1)NC(=O)[C@H](CCC(=O)O)NC(=O)[C@H](C)NC(=O)[C@H](CC(C)C)NC(=O)[C@H](CCCNC(=N)N)NC(=O)[C@H](CCC(N)=O)NC(=O)[C@@H](NC(=O)[C@H](CCC(N)=O)NC(=O)[C@H](C)NC(=O)[C@@H](NC(=O)[C@H](CO)NC(=O)[C@H](CC(C)C)NC(=O)[C@H](CCC(N)=O)NC(=O)[C@H](CO)NC(=O)[C@H](C)NC(C)=O)[C@@H](C)O)[C@@H](C)O)C(=O)N1CCC[C@H]1C(=O)N[C@@H](CO)C(=O)N[C@@H](CO)C(=O)N[C@H](C(=O)N[C@@H](CC(=O)O)C(=O)N[C@H](C(=O)NCC(=O)N1CCC[C@H]1C(=O)N[C@@H](CC(=O)O)C(=O)N[C@H](C(=O)N1CCC[C@H]1C(N)=O)[C@@H](C)O)C(C)C)[C@@H](C)O [Compound 19, N^1-acetyl,N{Epsilon-25}-[(4S)-4-carboxy-4-(17-carboxyheptadecanoylamino)butanoyl]-[Ala1,Ser2,Gln3,Leu4,Ser5,Ala7,Gln8,Glu14,His17,Asp21,Pro22,Lys25,Pro27,Asp31,Pro34,Asp35,Pro37]-human amylin] (Ac-ASQLSTAQTQRLAEFLHHSSDPFGK([γGlu-C18 diacid])IPSSTDVGPDTP-NH2) | 1 | 1.5
CC[C@H](C)[C@H](NC(=O)[C@@H]1CCCN1C(=O)CNC(=O)[C@H](Cc1ccccc1)NC(=O)[C@H](Cc1c[nH]cn1)NC(=O)[C@H](Cc1c[nH]cn1)NC(=O)[C@H](CC(C)C)NC(=O)[C@H](Cc1ccccc1)NC(=O)[C@H](CCC(=O)O)NC(=O)[C@H](C)NC(=O)[C@H](CC(C)C)NC(=O)[C@H](CCCNC(=N)N)NC(=O)[C@H](CCC(N)=O)NC(=O)[C@@H](NC(=O)[C@H](CCC(N)=O)NC(=O)[C@H](CC(C)C)NC(=O)[C@@H](NC(=O)[C@H](CO)NC(=O)[C@H](CC(C)C)NC(=O)[C@H](Cc1c[nH]cn1)NC(=O)[C@H](CO)NC(=O)[C@H](C)NC(=O)CC[C@H](NC(=O)CCCCCCCCCCCCCCCCC(=O)O)C(=O)O)[C@@H](C)O)[C@@H](C)O)C(=O)N[C@@H](CC(C)C)C(=O)N1CCC[C@H]1C(=O)N1CCC[C@H]1C(=O)N[C@H](C(=O)N[C@@H](CC(=O)O)C(=O)N[C@H](C(=O)NCC(=O)N[C@@H](CO)C(=O)N[C@@H](CCC(=O)O)C(=O)N[C@H](C(=O)N1CCC[C@H]1C(N)=O)[C@@H](C)O)C(C)C)[C@@H](C)O [Compound 35, N^1-[(4S)-4-carboxy-4-(17-carboxyheptadecanoylamino)butanoyl]-[Ala1,Ser2,His3,Leu4,Ser5,Leu7,Gln8,Glu14,His17,Pro25,Pro28,Pro29,Asp31,Glu35,Pro37],des-(19-22)-human amylin] ({C18 diacid-γGlu}-ASHLSTLQTQRLAEFLHHFGPILPPTDVGSETP-NH2) | 2.26 | 1.6
CC[C@H](C)[C@H](NC(=O)[C@@H]1CCCN1C(=O)CNC(=O)[C@H](Cc1ccccc1)NC(=O)[C@H](Cc1c[nH]cn1)NC(=O)[C@H](Cc1c[nH]cn1)NC(=O)[C@H](CC(C)C)NC(=O)[C@H](Cc1ccccc1)NC(=O)[C@H](CCC(=O)O)NC(=O)[C@H](C)NC(=O)[C@H](CC(C)C)NC(=O)[C@H](CCCNC(=N)N)NC(=O)[C@H](CCC(N)=O)NC(=O)[C@@H](NC(=O)[C@H](CCC(N)=O)NC(=O)[C@H](C)NC(=O)[C@@H](NC(=O)[C@H](CO)NC(=O)[C@H](CC(C)C)NC(=O)[C@H](CCC(=O)O)NC(=O)[C@H](CO)NC(=O)[C@H](C)NC(=O)CC[C@H](NC(=O)CCCCCCCCCCCCCCCCC(=O)O)C(=O)O)[C@@H](C)O)[C@@H](C)O)C(=O)N[C@@H](CC(C)C)C(=O)N1CCC[C@H]1C(=O)N1CCC[C@H]1C(=O)N[C@H](C(=O)N[C@@H](CC(=O)O)C(=O)N[C@H](C(=O)NCC(=O)N[C@@H](CO)C(=O)N[C@@H](CCC(=O)O)C(=O)N[C@H](C(=O)N1CCC[C@H]1C(N)=O)[C@@H](C)O)C(C)C)[C@@H](C)O [Compound 29, N^1-[(4S)-4-carboxy-4-(17-carboxyheptadecanoylamino)butanoyl]-[Ala1,Ser2,Glu3,Leu4,Ser5,Ala7,Gln8,Glu14,His17,Pro25,Pro28,Pro29,Asp31,Glu35,Pro37],des-(19-22)-human amylin] ({C18 diacid-γGlu}-ASELSTAQTQRLAEFLHHFGPILPPTDVGSETP-NH2) | 3.08 | 5.2
CC[C@H](C)[C@H](NC(=O)[C@H](CCCCNC(=O)CC[C@H](NC(=O)CCCCCCCCCCCCCCCCC(=O)O)C(=O)O)NC(=O)CNC(=O)[C@H](Cc1ccccc1)NC(=O)[C@@H]1CCCN1C(=O)[C@H](CC(=O)O)NC(=O)[C@H](CO)NC(=O)[C@H](CO)NC(=O)[C@H](Cc1c[nH]cn1)NC(=O)[C@H](Cc1c[nH]cn1)NC(=O)[C@H](CC(C)C)NC(=O)[C@H](Cc1ccccc1)NC(=O)[C@H](CCC(=O)O)NC(=O)[C@H](C)NC(=O)[C@H](CC(C)C)NC(=O)[C@H](CCCNC(=N)N)NC(=O)[C@H](C)NC(=O)[C@@H](NC(=O)[C@H](CCC(N)=O)NC(=O)[C@H](C)NC(=O)[C@@H](NC(=O)[C@H](CO)NC(=O)[C@H](CC(C)C)NC(=O)[C@H](Cc1c[nH]cn1)NC(=O)[C@H](CO)NC(=O)[C@H](C)NC(C)=O)[C@@H](C)O)[C@@H](C)O)C(=O)N1CCC[C@H]1C(=O)N[C@@H](CO)C(=O)N[C@@H](CO)C(=O)N[C@H](C(=O)N[C@@H](CC(=O)O)C(=O)N[C@H](C(=O)NCC(=O)N1CCC[C@H]1C(=O)N[C@@H](CC(=O)O)C(=O)N[C@H](C(=O)N1CCC[C@H]1C(N)=O)[C@@H](C)O)C(C)C)[C@@H](C)O [Compound 40, N^1-acetyl,N{Epsilon-25}-[(4S)-4-carboxy-4-(17-carboxyheptadecanoylamino)butanoyl]-[Ala1,Ser2,His3,Leu4,Ser5,Ala7,Gln8,Ala10,Glu14,His17,Asp21,Pro22,Lys25,Pro27,Asp31,Pro34,Asp35,Pro37]-human amylin] (Ac-ASHLSTAQTARLAEFLHHSSDPFGK([γGlu-C18 diacid])IPSSTDVGPDTP-NH2) | 1.29 | 1.38
